Assays:
[1] = tested on: corneal neovascularisation; experiment: Mouse corneal vascularisation model (cornea scratched and infected with Pseudomonas aeruginosa 6294); type: in vivo, BALB/c mice; settings: for vascularisation of the cornea compared to Groups 1 and 2 (photomicrographs): Group 3, 200 μmol/10 μL topical; for Percentage of animals showing vascularisation in the infected eye / animals showing vascularisation in the infected eye (number/total): 12-MTA 200 μmol/10 μL topical, every second day from day 4; for corneal neovascularisation in mice (in words): mouse, in vivo
Description: To induce neovascularisation in the cornea of mice, cornea were scratched and infected with Pseudomonas aeruginosa as essentially described in Cole, N., Willcox, M. D. P., Fleiszig, S. M. J., Stapleton, F., Bao, S., Tout, S., Husband, A. J. (1998) “Different strains of Pseudomonas aeruginosa isolated from ocular infections or inflammation display distinct corneal pathologies in an animal model.” Curr. Eye Res., 17:730-735.
Briefly, stock cultures of P. aeruginosa 6294 stored in 30% glycerol at −70° C. were inoculated into 10 mL of tryptone soya broth (Oxoid Ltd, Sydney, Australia). Cultures were prepared as previously described (Cole et al. (1998) Curr. Eye Res. 17:730-735) and suspended in phosphate buffered saline (PBS) to a concentration of 4×10^8 cfu (colony forming units)/ml. Bacterial concentration was adjusted turbidimetrically and the dose confirmed retrospectively by viable counts.
Inbred 6-8 week old BALB/c mice were anaesthetised with Averin (125 mg/kg, intraperitoneally) and the corneal surfaces of the eyes were incised with a sterile 27 gauge needle. 5 μL of the bacterial suspension (2.0×10^6 cfu) of strain 6294 was pipetted directly onto the wounded cornea of the left eye only. The right eye of each animal served as a control and was scratched but not infected. A minimum of eight mice per treatment group were used.
12-MTA at 200 μmol/10 μL was prepared as an emulsion in unpreserved paraffin and lanolin ophthalmic ointment base (Polyvisc, Alcon, Belgium) for topical application. Animals were divided into three treatment groups: Group 1 received no treatment; Group 2 received 10 μL of vehicle topically to the cornea per treatment to both the challenged and scratch control eye; and Group 3 received 10 μL of the 12-MTA as described above to both the challenged and scratch control eyes. The treatment schedule was begun four days after challenge and then every second day until the termination of the experiment 14 days post-challenge.
Mice were examined prior to bacterial challenge, immediately subsequent to bacterial challenge and 7 and 14 days post-challenge by a masked observer. The animals were anaesthetised for examination as described above and the corneas were examined at 48× magnification under white light using an FS2 photo slit-lamp biomicroscope (Topcon Corporation, Tokyo, Japan). At 7 and 14 days post-challenge, following the white light examination, 1% sodium fluorescein was instilled and the corneas viewed under UV light. Grades of severity of corneal damage were made and measurement of the extent and incursion of vessels into the central cornea were made.
Measurements were examined for significance using non-parametric Kruskal-Wallis and Mann Whitney U analysis.
For histological examination of corneas, mice were sacrificed at 14 days post-challenge. The eyes were immediately enucleated, fixed in neutral buffered formalin and embedded in paraffin. […] sections were cut and stained with haematoxylin and eosin for histopathological examination.

Aqueous solubility = type: physicochemical

CCC(C)CCCCCCCCCCC(=O)O (stereo not drawn) [12-MTA, 12-methyltetradecanoic acid]
effect on scratch control (uninfected) eyes ([1]; 200 μmol/10 μL topical, any time point): does not affect the cornea | blood vessel formation in the corneal stroma (histological examination) ([1]; 14 days post-challenge, Group 3): reduced blood vessel formation | vascularisation of the cornea compared to Groups 1 and 2 (photomicrographs) ([1]; Day 7): reduced vascularisation | Percentage of animals showing vascularisation in the infected eye ([1]; Day 7 post-challenge): 40% | animals showing vascularisation in the infected eye (number/total) ([1]; Day 7 post-challenge): 4/10 | vascularisation of the cornea compared to Groups 1 and 2 (photomicrographs) ([1]; Day 14): reduced vascularisation | Percentage of animals showing vascularisation in the infected eye ([1]; Day 14 post-challenge): 50% | animals showing vascularisation in the infected eye (number/total) ([1]; Day 14 post-challenge): 5/10 | animals with mild ocular response ([1]; Group 3, Day 14 post-challenge): 60% | animals with severe ocular response ([1]; Group 3, Day 14 post-challenge): 20% | median score of severity of corneal damage (ocular response) ([1]; Group 3, Day 14 post-challenge): 1.65 (range 0-4) | animals with a persistent epithelial defect ([1]; Group 3, first examination): 20% | animals with mild ocular response ([1]; Group 3, first examination): 50% | animals with severe ocular response ([1]; Group 3, first examination): 10% | median score of severity of corneal damage (ocular response) ([1]; Group 3, first examination (Day 7 implied, not given)): 2.1 (range 0.54) | corneal neovascularisation in mice (in words) [1]: inhibited corneal neovascularization | corneal neovascularisation in mice (in words) ([1]; listed as 12-methlytetradecanoic acid): inhibits corneal neovascularisation | aqueous solubility (Aqueous solubility): poor

— patent US20050143463A1, “Method of inhibiting angiogenesis” (THE QUEEN ELIZABETH HOSPITAL RESEARCH FOUNDATION INC., priority 2002, published 2005)
